In brackets after ≈: the same amount, converted by molar mass. Several values for one entry are separate records, joined by “and”; a condition that tells them apart may be missing. Equal values may be shown once.
How the values were obtained:
[1] = DNDI: in vitro intrinsic clearance in mouse liver microsomes at a concentration of 10uM; format: ADME, Microsome; details: read-out: CLint in vitro
[2] = DNDI: half life in mouse liver microsomes at a concentration of 10uM; format: ADME, Microsome
[3] = DNDI: Lipophilicity measured in Chromatographic hydrophobicity index (CHI) assay, pH 7.4; format: physicochemical; details: buffer
Trypanosoma cruzi = experiment: DNDI: Inhibition of Chagas Disease parasite Trypanosoma cruzi (Tulahuen LacZ, Clone C4), in vitro.; format: functional, organism-based
[4] = DNDI: Cytotoxicity against L929 mouse fibroblasts, 72 hour.; format: toxicity, cell-based; details: mouse, L929 mouse fibroblasts
[5] = DNDI: Solubility in phosphate buffered saline at pH7.4 measured by optical density (turbidimetry) at room temperature (OD-RT); format: physicochemical; details: pH 7.4
Trypanosoma brucei [6] = experiment: DNDI: Inhibition of Human African Trypanosomiasis, Cross 22, in vitro; format: functional, organism-based
Trypanosoma brucei [7] = experiment: DNDI: Inhibition of Human African Trypanosomiasis, SBRI 427, in vitro; format: functional, organism-based
[8] = DNDI: Cytotoxicity against L-6 rat myoblasts from skeletal muscle cells; format: toxicity, cell-based, L6; details: L-6 rat skeletal muscle myoblasts
[9] = DNDI: half life in human liver microsomes at a concentration of 10uM; format: ADME, Microsome
in vitro [10] = details: mouse, liver microsomes
Description: (§2) DNDI: in vitro intrinsic clearance in mouse liver microsomes at a concentration of 1uM

[11] = mouse, microsomes, 1 µM
Description: as §2

Plasmodium falciparum = experiment: DNDI: Inhibition of the malaria parasite Plasmodium falciparum, in vitro; format: functional, organism-based; details: K1
in vitro [12] = details: mouse, liver microsomes, t (1 / 2)
Description: (§3) DNDI: half life in mouse liver microsomes at a concentration of 1uM

Leishmania donovani = experiment: DNDI: Inhibition of formation of Leishmania donovani (strain MHOM/ET/67/L82) axenic amastigotes, in vitro.; format: functional, organism-based
[13] = DNDI: Cytotoxicity against L929 mouse fibroblasts, CYTO-SP, 24 hour; format: toxicity, cell-based; details: mouse, L929 mouse fibroblasts
[14] = mouse, microsomes, 1 µM; remark: listed apart in the source
Description: as §3

[15] = DNDI: in vitro intrinsic clearance in human liver microsomes at a concentration of 10uM; format: ADME, Microsome
[16] = test system: Trypanosoma brucei rhodesiense; experiment: DNDI: Inhibition of Human African Trypanosomiasis (HAT), STIB 900, in vitro; format: functional, organism-based
Trypanosoma brucei [17] = experiment: (§1) DNDI: Mean survival time in days (MSD) of mice after intraperitoneal injection of Human African Trypanosomiasis (HAT), EATRO 110, in vivo at 20 mg/kg/day for 4 days.; format: functional, Mus musculus
[18] = DNDI: % of compound remaining in rat S9 microsomes at a concentration of 1uM; format: ADME, subcellular, Liver, S9 fraction
Trypanosoma brucei [19] = experiment: as §1; format: functional, Mus musculus; remark: listed apart in the source
[20] = DNDI: % of compound remaining in mouse S9 microsomes at a concentration of 1uM after 60 mins; format: ADME, subcellular, Liver, S9 fraction
[21] = DNDI: Solubility in phosphate buffered saline at pH7.4 measured by nephelometry at room temperature (NEPH-RT); format: physicochemical; details: pH 7.4
in vitro [22] = details: human, liver microsomes, t (1 / 2)
Description: DNDI: half life in human liver microsomes at a concentration of 1uM

in vitro [23] = details: human, liver microsomes, CLint in vitro
Description: DNDI: in vitro intrinsic clearance in human liver microsomes at a concentration of 1uM

Trypanosoma brucei [24] = experiment: DNDI: Inhibition of Human African Trypanosomiasis, EATRO 110, in vitro; format: functional, organism-based
[25] = Trypanosoma brucei, SBRI 427, read-out: IC50

| SMILES | microsomal CLint at 10 µM [1] [µL/min/mg] | half-life at 10 µM [2] [h] | IC50 (Trypanosoma cruzi) [µg/mL] | solubility kinetic [5] [µM] | IC50 (Trypanosoma brucei [6]) [µg/mL] | IC50 (Trypanosoma brucei [7]) | IC50 (Trypanosoma brucei [7]; [25]) [µg/mL] | half-life at 10 µM [9] [h] | microsomal CLint at 1 µM (in vitro [10]) [µL/min/mg] | CLint in vitro [11] | IC50 (Plasmodium falciparum) [µg/mL] | half-life at 1 µM (in vitro [12]) [h] | t (1 / 2) [14] | chromatographic logD [3] | IC50 at 72 h [4] [µg/mL] | IC50 [8] [µg/mL] | IC50 at 24 h [13] [µg/mL] | remaining at 1 µM [18] [%] | remaining at 1 h, 1 µM [20] [%] | solubility kinetic [21] [µM] | also measured |
| --- | --- | --- | --- | --- | --- | --- | --- | --- | --- | --- | --- | --- | --- | --- | --- | --- | --- | --- | --- | --- | --- |
| CCCCCC(C)NCc1coc(-c2ccc(OCCCC)cc2)n1 (centres undefined) | 15 | 3.12 | 1.5 (≈ 4.35 µM) | 1.6 (≈ 0.551 µg/mL) | 0.36 (≈ 1.04 µM) | 0.29 µg/mL and 0.22 µg/mL | 0.38 (≈ 1.1 µM) | 1.73 | 12 | 10 µL/min/mg | 0.825 (≈ 2.39 µM) | 1.17 | 84 min | 5.01 | 1.54 (≈ 4.47 µM) | 2.66 (≈ 7.72 µM) | > 50 |  |  |  | IC50 (Leishmania donovani): 4.92 µg/mL (≈ 14.3 µM); CLint in vitro [15]: 28 µL/min/mg; IC50 [16]: 0.278 µg/mL (≈ 0.807 µM) |
| COc1ccc(/C(=N/O)Nc2cccc(C(F)(F)F)c2)cc1 |  |  |  |  |  |  |  |  |  | 319 µL/min/mg |  | 0.05 |  | 3.67 | 8.11 (≈ 26.1 µM) |  |  | 0 | 0 | 25 (≈ 7.76 µg/mL) | MSD (Trypanosoma brucei [17]): 5 days; MSD (Trypanosoma brucei [19]): 5 days |
| CCCCCC(C)NCc1coc(-c2ccc(Oc3ccccc3)cc2)n1 (centres undefined) |  |  |  |  |  |  | 0.42 (≈ 1.15 µM) |  |  | 28 µL/min/mg |  | 0.517 |  | 4.67 | 1.6 (≈ 4.39 µM) |  |  | 0 | 59.9 | 6 (≈ 2.19 µg/mL) |  |
| CCCCOc1ccc(-c2nc(CNC3CC(C)CC(C)(C)C3)co2)cc1 (centres undefined) |  |  |  |  | 0.61 (≈ 1.65 µM) | 0.39 µg/mL and 0.47 µg/mL and 1.12 µg/mL |  |  | 6 | 8 µL/min/mg |  | 2.33 | 113 min |  | < 3.13 |  | 20.9 (≈ 56.4 µM) |  |  |  |  |
| O/N=C(\Nc1ccccc1)c1ccccc1-c1ccccc1 |  |  |  |  |  |  | 4.39 (≈ 15.2 µM) |  | 338 | 352 µL/min/mg |  | 0.05 | 2 min | 4.32 |  |  | 36.9 (≈ 128 µM) |  |  | 25 (≈ 7.21 µg/mL) | half-life at 1 µM (in vitro [22]): 1.87 h; microsomal CLint at 1 µM (in vitro [23]): 8 µL/min/mg; MSD (Trypanosoma brucei [19]): 4 days |
| COc1cc(C)ccc1Oc1ncccc1/C(=N/O)NC1CCCCC1 | 76 | 0.633 | > 30 | 25 (≈ 8.89 µg/mL) |  | 0.15 µg/mL (≈ 0.422 µM) | 0.25 (≈ 0.703 µM) | 2.57 |  | 76 µL/min/mg | > 5 | 0.183 |  | 4 | > 10 | 76.2 (≈ 214 µM) | > 50 | 0.111 | 18.3 | 25 (≈ 8.89 µg/mL) | logD [3]: 4.04; IC50 (Leishmania donovani): > 90 µg/mL; MSD (Trypanosoma brucei [19]): 5.5 days; IC50 (Trypanosoma brucei [24]): 0.48 µg/mL (≈ 1.35 µM); CLint in vitro [15]: 19 µL/min/mg; IC50 [16]: 57.9 µg/mL (≈ 163 µM) |

Further lines, with some results ahead:

| microsomal CLint at 10 µM [1] [µL/min/mg] | half-life at 10 µM [2] [h] | IC50 (Trypanosoma cruzi) [µg/mL] | solubility kinetic [5] [µM] | IC50 (Trypanosoma brucei [6]) [µg/mL] | IC50 (Trypanosoma brucei [7]) | IC50 (Trypanosoma brucei [7]; [25]) [µg/mL] | half-life at 10 µM [9] [h] | microsomal CLint at 1 µM (in vitro [10]) [µL/min/mg] | CLint in vitro [11] | IC50 (Plasmodium falciparum) [µg/mL] | half-life at 1 µM (in vitro [12]) [h] | t (1 / 2) [14] | SMILES | chromatographic logD [3] | IC50 at 72 h [4] [µg/mL] | IC50 [8] [µg/mL] | IC50 at 24 h [13] [µg/mL] | remaining at 1 µM [18] [%] | remaining at 1 h, 1 µM [20] [%] | solubility kinetic [21] [µM] | also measured |
| --- | --- | --- | --- | --- | --- | --- | --- | --- | --- | --- | --- | --- | --- | --- | --- | --- | --- | --- | --- | --- | --- |
| 51 | 0.95 | 7.25 (≈ 24.6 µM) | 6.3 (≈ 1.85 µg/mL) |  |  | 0.62 (≈ 2.11 µM) | 9.28 |  | 119 µL/min/mg | 2.78 (≈ 9.44 µM) | 0.117 |  | O/N=C(\NC1CCCCC1)c1ccccc1-c1ccccc1 | 4.53 | > 10 | 41.7 (≈ 142 µM) | 50 (≈ 170 µM) | 0 | 6.85 |  | IC50 (Leishmania donovani): 27.6 µg/mL (≈ 93.7 µM); CLint in vitro [15]: 5 µL/min/mg; IC50 [16]: 50.4 µg/mL (≈ 171 µM) |
|  |  |  |  | 0.54 (≈ 1.56 µM) | 0.27 µg/mL and 0.56 µg/mL and 0.41 µg/mL |  |  |  | 4 µL/min/mg and 10 µL/min/mg |  |  | 88 min and 237 min | c1ccc(-c2ccc(-c3nc(CNC4CCCCCC4)co3)cc2)cc1 |  | < 3.13 |  | 25.3 (≈ 73.1 µM) |  |  |  |  |
|  |  |  |  | 0.64 (≈ 1.66 µM) | 0.28 µg/mL and 0.72 µg/mL and 0.58 µg/mL |  |  |  | 25 µL/min/mg and 11 µL/min/mg |  |  | 80 min and 34 min | CC1(C)[C@H]2CC[C@@H](CNCc3coc(-c4ccc(-c5ccccc5)cc4)n3)[C@@H]1C2 |  | < 3.13 |  | 17.6 (≈ 45.6 µM) |  |  |  |  |

Reference: ChEMBL document CHEMBL1857833, “Screening and optimization of specific chemical series against human African Trypanosomiasis (HAT)”
